# Experimental data from patent publication US20150315241A1, “Antibiotic Peptides” (priority 2007, published 2015).
# Read-outs that look alike come from different tables or passages of the source. Where a SMILES comes first, the peptide text is derived from it. [ ]: non-standard residue; d: D form. Orn = NCCC[C@H](N)C(=O)O
# Assays:
# E. coli BL 21 AI = experiment: Growth inhibition assay (MIC); type: cell-based, Escherichia coli; conditions: 1% TSB, 37° C., 20 hrs
# How it was run: (§1)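 Bacteria grown overnight in NB at 37° C. were adjusted to 5×10^6 CFU/mL in 1% TSB and mixed 1:1 with a two-fold peptide series (final 125 μg/mL–60 ng/mL). After 20 hrs at 37° C., A595 was read; triplicates.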
# E. coli D31 = type: cell-based, Escherichia coli
# How it was run: (§2)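 Bacteria grown overnight in nutrient broth at 37° C were diluted to 5×10^6 CFU/mL in 1% TSB and exposed to peptides serially halved from 125 μg/mL to 60 ng/mL final. After 20 h at 37° C, A595 gave the MIC, measured in triplicate.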
# K. pneumonia 681 = type: cell-based, Klebsiella pneumoniae; conditions: 1% TSB, 37° C., 20 hrs
# Experimental: (§3) The minimal inhibition concentrations (MIC) of the apidaecin-derived peptides and peptide-derivatives were determined by a growth inhibition assay using a serial peptide dilution in sterilized round-bottom 96-well plates (polystyrene, U-bottom, Greiner Bio-One GmbH) with a final volume of 100 μL per well. The bacteria, e.g., E. coli BL21 A1, were grown in nutrient broth (NB, Carl Roth GmbH+Co. KG, Karlsruhe, Germany) at 37° C. over night. To each well of the 96-well plate, 50 μL of the overnight culture adjusted to 5×10^6 CFU/mL in 1% TSB were added. Lyophilized peptides and peptidomimetics were dissolved in 1% TSB (tryptic soy broth) or water to give a final concentration of 250 μg/mL. Fifty μL of the peptide or peptidomimetics solution were added to the first well of a row on the plate and mixed. Fifty μL of the first well containing the peptide solution were transferred to the second well, mixed and again 50 μL transferred to the next well and so on. Thereby, a two-fold dilution series was obtained starting at 250 μg/mL in the first well down to 120 ng/mL in the 12th well of a row giving a final peptide or peptidomimetics concentration from 125 μg/mL (well 1) to 60 ng/mL (well 12). Plates were incubated at 37° C. for 20 hrs. The absorbance was measured at 595 nm using a TECAN micro plate spectrophotometer (Tecan, Germany). All peptides and peptidomimetics were measured in triplicates. Sterilized water was used as a negative control.
# (§4) The bacteria strains were tested: • Eschericha coli 1103, 10233, BL 21 AI, DC 2, • Klebsiella pneumoniae 681, • Micrococcus luteus ATCC 10240, • Mycobacterium vaccae • Bactillus subtillis 347.
# S. typhi S5 = type: cell-based, Salmonella typhi
# How it was run: as §2
# [1] = system: S. enterica subsp. Enterica serovar. typhi G10215 ATCC 700408; type: cell-based, Salmonella enterica
# How it was run: as §2
# B. subtilis 347 = type: cell-based, Bactillus subtillis; conditions: 1% TSB, 37° C., 20 hrs
# Experimental: as §3, §4
# K. Pneumonia 123132 = experiment: Growth inhibition assay (MIC); type: cell-based, Klebsiella pneumoniae; conditions: multidrug resistant strain; 1% TSB, 37° C., 20 hrs
# How it was run: as §2
# [2] = system: K. Pneumonia K6, ATCC 700603; experiment: Growth inhibition assay (MIC); type: cell-based, Klebsiella pneumoniae; conditions: multidrug resistant strain; 1% TSB, 37° C., 20 hrs
# How it was run: as §2
# E. coli 45849 = experiment: Growth inhibition assay (MIC); type: cell-based, Escherichia coli; conditions: multidrug resistant strain; 1% TSB, 37° C., 20 hrs
# How it was run: as §2
# E. coli 10233 = type: cell-based, Escherichia coli; conditions: 1% TSB, 37° C., 20 hrs
# Experimental: as §3, §4
# M. luteus ATCC 10240 = type: cell-based, Micrococcus luteus; conditions: 1% TSB, 37° C., 20 hrs
# How it was run: as §1
# in vitro = in vitro ADME, mouse; conditions: 37° C.; for half-life at 0.061 mg/mL: 25% aqueous mouse serum, read-out: Half-life time
# Experimental: Serum stability studies were carried out in duplicate as described by Hoffmann et al.. Briefly, 28 μL of an aqueous peptide or peptidomimetics solution (0.5 mg/mL) was added to 0.2 mL freshly pooled 25% mouse serum (Sigma-Aldrich GmbH, Taufkirchen, Germany) in water. The mixtures were incubated at 37° C. under gentle stirring. The proteins were precipitated with 40 μL of 15% aqueous TCA after incubation times of 0, 0.5, 1, 2, 4 and 6 h at 0° C. for 20 min before centrifuged (13500×G) at 4° C. for 5 min. The supernatants of all samples (240 μL) were neutralized with 1 mol/L aqueous NaOH and immediately stored at −20° C. The supernatants were analyzed by RP-HPLC using a linear acetonitrile gradient as described above with 0.1% TFA as ion pair reagent. Collected fractions of the main peaks were further analyzed by tandem mass spectrometry (MALDI-TOF/TOF-MS, 4700 Proteomics Analyzer, Applied Biosystems GmbH, Weiterstadt, Germany) in positive ion reflector mode using α-cyanohydroxycinnamic acid (50% CH3CN in 0.1% aqueous TFA) as matrix to identify the degradation products of the peptides and peptidomimetics, i.e., metabolites, at the different time points. Serum control samples consisted of 200 μL of pooled 25% mouse serum in water, which were also precipitated with 40 μL 15% aqueous TCA, as described before. Peptide reference samples consisted of 28 μL of the peptide stock solution diluted in 0.2 mL water and 40 μL of 15% aqueous trichloroacetic acid (TCA).
# [3] = multidrug resistant strain, 1% TSB, 37° C., 20 hrs
molecule,measurement,setting,value
85 (GNNRPVYIPQPRPPHPRL) [compound 85],MIC E. coli BL 21 AI,E. coli BL 21 AI,0.24 µg/mL
same,MIC E. coli D31,E. coli D31; [3],16 µg/mL
same,MIC K. pneumonia 681,K. pneumonia 681,31.25 µg/mL
same,MIC S. typhi S5,S. typhi S5; [3],0.5 µg/mL
same,MIC S. enterica subsp. Enterica serovar. typhi G10215 ATCC 700408,[1]; [3],0.5 µg/mL
same,MIC B. subtilis 347,B. subtilis 347,>125 µg/mL
same,MIC K. Pneumonia 123132,K. Pneumonia 123132,16 µg/mL
same,"MIC K. Pneumonia K6, ATCC 700603",[2],64 µg/mL
same,MIC E. coli 45849,E. coli 45849,2 µg/mL
same,MIC E. coli 10233,E. coli 10233,1.95 µg/mL
same,MIC M. luteus ATCC 10240,M. luteus ATCC 10240,15.63 µg/mL
CC[C@H](C)[C@H](NC(=O)[C@H](Cc1ccc(O)cc1)NC(=O)[C@@H](NC(=O)[C@@H]1CCCN1C(=O)[C@H](CCCNC(=N)N)NC(=O)[C@H](CC(N)=O)NC(=O)[C@H](CC(N)=O)NC(=O)[C@@H](N)CCCN)C(C)C)C(=O)N1CCC[C@H]1C(=O)N[C@@H](CCCNC(=N)N)C(=O)N1CCC[C@H]1C(=O)N[C@@H](CCCNC(=N)N)C(=O)N1CCC[C@H]1C(=O)N1CCC[C@H]1C(=O)N[C@@H](Cc1c[nH]cn1)C(=O)N1CCC[C@H]1C(=O)N[C@@H](CCCN)C(=O)N[C@@H](CC(C)C)C(N)=O [compound 81] (H-[Orn]NNRPVYIPRPRPPHP[Orn]L-NH2),MIC E. coli D31,"E. coli D31; D31, 20 h",8 µg/mL
same,MIC S. typhi S5,"S. typhi S5; S5, 20 h",4 µg/mL
same,MIC S. enterica subsp. Enterica serovar. typhi G10215 ATCC 700408,"[1]; ATCC 700408, 20 h",4 µg/mL
same,MIC K. Pneumonia 123132,K. Pneumonia 123132,8 µg/mL
same,"MIC K. Pneumonia K6, ATCC 700603",[2],16 µg/mL
same,MIC E. coli 45849,E. coli 45849,8 µg/mL
same,half-life at 0.061 mg/mL,in vitro,2 h
CC[C@H](C)[C@H](NC(=O)[C@H](Cc1ccc(O)cc1)NC(=O)[C@@H](NC(=O)[C@@H]1CCCN1C(=O)[C@H](CCCNC(=N)N)NC(=O)[C@H](CC(N)=O)NC(=O)[C@H](CC(N)=O)NC(=O)[C@H](CCCN)NC(C)=O)C(C)C)C(=O)N1CCC[C@H]1C(=O)N[C@@H](CCCNC(=N)N)C(=O)N1CCC[C@H]1C(=O)N[C@@H](CCCNC(=N)N)C(=O)N1CCC[C@H]1C(=O)N1CCC[C@H]1C(=O)N[C@@H](Cc1c[nH]cn1)C(=O)N1CCC[C@H]1C(=O)N[C@@H](CCCN)C(=O)N[C@@H](CC(C)C)C(N)=O [compound 82] (Ac-[Orn]NNRPVYIPRPRPPHP[Orn]L-NH2),MIC E. coli D31,"E. coli D31; D31, 20 h",32 µg/mL
same,MIC S. typhi S5,"S. typhi S5; S5, 20 h",8 µg/mL
same,MIC S. enterica subsp. Enterica serovar. typhi G10215 ATCC 700408,"[1]; ATCC 700408, 20 h",8 µg/mL
same,MIC K. Pneumonia 123132,K. Pneumonia 123132,8 µg/mL
same,"MIC K. Pneumonia K6, ATCC 700603",[2],32 µg/mL
same,MIC E. coli 45849,E. coli 45849,16 µg/mL
same,half-life at 0.061 mg/mL,in vitro,> 6 h
same,half-life,in vitro; 25% aqueous serum,The same stability
